According to US20220362396A1, “AMINO-PYRAZINECARBOXAMIDE COMPOUNDS, CONJUGATES, AND USES THEREOF” (Silverback Therapeutics, Inc., priority 2018, published 2022):

Assays:
[1] = system: TGFβ/SMAD Signaling Pathway SBE reporter cell line; assay: TGFβ reporter assay, in vitro small molecule screening (luciferase); format: cell-based; details: TGFβ stimulation, luminescence
Protocol: TGFβ/SMAD Signaling Pathway SBE reporter cell line was obtained from BPS Bioscience. Cells were passed, expanded, and stored in liquid nitrogen as per the supplier's instructions with the exception that growth media is changed to DMEM-C with Geneticin (DMEM supplemented with 10% fetal bovine serum, 1×NEAA, 1 mM Pyruvate, 2 mM glutamine, 50 μg/mL penicillin, 50 U/mL streptomycin and 400 μg/mL of Geneticin). The assay media was MEM supplemented with 0.5% fetal bovine serum, 1×NEAA, 1 mM Pyruvate, 50 μg/mL penicillin and 50 U/mL streptomycin.
Test samples (at desired concentrations diluted in assay media) were added to a 96-well assay plate, 20 μL per well. Reporter cells were harvested from the tissue culture flasks by incubation in small quantity of PBS at 37° C. for two minutes after the media in the flask is removed and cells rinsed with PBS. Cells were counted and diluted in the assay media at approximately 0.5×10^6 cells/mL and then 80 μL/well of cells were added to the assay plate containing the 20 μL/well of test samples (or media only), and incubated for approximately 5-6 hours at 37° C. in a 5% CO2 humidified incubator. After that time, 15 μL of TGFβ diluted to 12 ng/mL in the assay media was added to the plate. Controls included TGFβ titration (from 50 to 0 ng/mL) without inhibitors, and media only (without cells, inhibitor or TGFβ). Plates were incubated at 37° C. in a 5% CO2 humidified incubator for 18 h. Luciferase substrate solution is subsequently added at 100 μL per well, incubated in the dark at room temperature for 15 min, and luminescence is measured using a luminometer. EC50 values and curve fits were obtained using Prism (GraphPad Software).

TGFBR2 = biological target: T1, TGFBR2 (Homo sapiens, UniProt P37173); assay: TGFBR2 RBC assay (enzyme inhibition assay, Reaction Biology Corp.); format: biochemical
T1 construct: purchased Reaction Biology Corp
Protocol: Compounds of the disclosure were also assayed by Reaction Biology Corp. using the TGFBR2 RBC assay (enzyme inhibition assay). […] NT refers to not tested.

T1 sequence (P37173 23-567): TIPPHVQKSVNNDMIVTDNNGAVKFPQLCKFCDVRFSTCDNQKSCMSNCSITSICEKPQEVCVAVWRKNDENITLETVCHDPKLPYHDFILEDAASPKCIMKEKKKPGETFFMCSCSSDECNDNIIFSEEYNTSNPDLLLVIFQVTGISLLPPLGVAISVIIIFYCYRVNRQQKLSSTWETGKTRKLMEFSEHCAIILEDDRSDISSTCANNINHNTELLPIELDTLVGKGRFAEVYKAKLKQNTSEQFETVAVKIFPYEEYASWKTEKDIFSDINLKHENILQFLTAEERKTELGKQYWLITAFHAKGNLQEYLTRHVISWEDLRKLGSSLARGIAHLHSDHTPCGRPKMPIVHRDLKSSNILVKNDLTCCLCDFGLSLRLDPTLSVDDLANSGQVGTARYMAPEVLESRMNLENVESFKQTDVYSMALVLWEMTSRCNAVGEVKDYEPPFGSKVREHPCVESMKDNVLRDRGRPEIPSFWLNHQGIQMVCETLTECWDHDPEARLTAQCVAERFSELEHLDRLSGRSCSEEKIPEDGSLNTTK

Row | SMILES | EC50 [1] [nM] | IC50 (TGFBR2) [nM]
1 | Cc1nccn1-c1ccncc1NC(=O)c1nc(-c2ccc(CCNC(=O)OCc3ccccc3)cc2)cnc1N [Compound 3.1, Benzyl (4-(5-amino-6-((4-(2-methyl-1H-imidazol-1-yl)pyridin-3-yl)carbamoyl)pyrazin-2-yl)phenethyl)carbamate] | 100 to 1000 | < 50
2 | Cc1nccn1-c1ccncc1NC(=O)c1nc(-c2ccc(CCN)cc2)cnc1N [Compound 4.1, 3-Amino-6-(4-(2-aminoethyl)phenyl)-N-(4-(2-methyl-1H-imidazol-1-yl)pyridin-3-yl)pyrazine-2-carboxamide] | 100 to 1000 | < 50
3 | Nc1ncc(-c2ccc(CCNC(=O)OCc3ccccc3)cc2)nc1C(=O)Nc1cnccc1-c1ccncc1 [Compound 5.1, Benzyl (4-(6-([4,4′-bipyridin]-3-ylcarbamoyl)-5-aminopyrazin-2-yl)phenethyl)carbamate] | 100 to 1000 | < 50
4 | NCCc1ccc(-c2cnc(N)c(C(=O)Nc3cnccc3N3CCOCC3CO)n2)cc1 (stereo not shown) [Compound 8] | 100 to 1000 | –
5 | N#Cc1cnccc1-c1ccncc1NC(=O)c1nc(-c2ccc(CCNC(=O)OCc3ccccc3)cc2)cnc1N [Compound 9] | 100 to 1000 | –
6 | N#Cc1cnccc1-c1ccncc1NC(=O)c1nc(-c2ccc(CCNC(=O)OCc3ccccc3)cc2)cnc1N [Compound 10] | > 1000 | –
7 | Nc1ncc(-c2ccc(CCNC(=O)[C@H](CCC(=O)O)NC(=O)OCc3ccccc3)cc2)nc1C(=O)Nc1cnccc1N1CCOCC1 [Compound 11] | > 1000 | –
8 | N#Cc1ncccc1-c1ccncc1NC(=O)c1nc(-c2ccc(CCNC(=O)OCc3ccccc3)cc2)cnc1N [Compound 13] | > 1000 | –
9 | COc1ccc(-c2ccncc2NC(=O)c2nc(-c3ccc(CCNC(=O)OCc4ccccc4)cc3)cnc2N)cc1 [Compound 14] | > 1000 | > 1000
10 | N#Cc1ccc(-c2ccncc2NC(=O)c2nc(-c3ccc(CCNC(=O)OCc4ccccc4)cc3)cnc2N)cc1 [Compound 15] | 100 to 1000 | 100 to 1000
11 | COc1ccc(-c2ccncc2NC(=O)c2nc(-c3ccc(CCNC(=O)OCc4ccccc4)cc3)cnc2N)cn1 [Compound 16] | 100 to 1000 | < 50
12 | Cc1cc(-c2ccncc2NC(=O)c2nc(-c3ccc(CCNC(=O)OCc4ccccc4)cc3)cnc2N)ccn1 [Compound 17] | 100 to 1000 | 100 to 1000
13 | Nc1ncc(-c2ccc(CCNC(=O)OCc3ccccc3)cc2)nc1C(=O)Nc1cnccc1-c1ccnc(Cl)c1 [Compound 18] | 100 to 1000 | > 1000
14 | Nc1ncc(-c2ccc(CCNC(=O)OCc3ccccc3)cc2)nc1C(=O)Nc1cnccc1-c1ccnc2ccccc12 [Compound 19] | > 1000 | > 1000
15 | Nc1ncc(-c2ccc(CCNC(=O)OCc3ccccc3)cc2)nc1C(=O)Nc1cnccc1-c1ccc(F)cc1 [Compound 20] | > 1000 | > 1000
16 | COc1cc(-c2ccncc2NC(=O)c2nc(-c3ccc(CCNC(=O)OCc4ccccc4)cc3)cnc2N)ccn1 [Compound 21] | 100 to 1000 | > 1000
17 | Nc1ncc(-c2ccc(CCNC(=O)OCc3ccccc3)cc2)nc1C(=O)Nc1cnccc1-c1ccc(=O)[nH]c1 [Compound 22] | 50 to 100 | 100 to 1000
18 | Nc1ncc(-c2ccc(CCNC(=O)OCc3ccccc3)cc2)nc1C(=O)Nc1cnccc1-c1ccncc1F [Compound 23] | 100 to 1000 | < 50
19 | COc1cccc(-c2ccncc2NC(=O)c2nc(-c3ccc(CCNC(=O)OCc4ccccc4)cc3)cnc2N)c1 [Compound 24] | 100 to 1000 | 100 to 1000
20 | Cc1cc(CNC(=O)OCc2ccccc2)ccc1-c1cnc(N)c(C(=O)Nc2cnccc2N2CCOCC2)n1 [Compound 60] | 100 to 1000 | –
21 | COCCNc1ccncc1NC(=O)c1nc(-c2ccc(CCNC(=O)OCc3ccccc3)cc2)cnc1N [Compound 99] | > 1000 | –
22 | COCCNc1ccncc1NC(=O)c1nc(-c2ccc(CCN)cc2)cnc1N [Compound 100] | > 1000 | –
23 | NCCc1ccc(-c2cnc(N)c(C(=O)Nc3cnccc3-n3ccnc3-c3ccccc3)n2)cc1 [Compound 145] | – | 100 to 1000
24 | Nc1ncc(-c2ccc(CCNC(=O)OCc3ccccc3)cc2)nc1C(=O)Nc1cnccc1-n1ccnc1-c1ccccc1 [Compound 146] | – | 100 to 1000
25 | NCCc1ccc(-c2cnc(N)c(C(=O)Nc3cncc(-c4ccccc4[N+](=O)[O-])c3)n2)cc1 [Compound 147] | – | 50 to 100
26 | CN(c1ccc(-c2cnc(N)c(C(=O)Nc3cnccc3N3CCOCC3)n2)cc1)C1CCNCC1 [Compound 301] | 50 to 100 | –

More lines, now with the values ahead:

Row | EC50 [1] [nM] | IC50 (TGFBR2) [nM] | SMILES
27 | 100 to 1000 | < 50 | Nc1ncc(-c2ccc(CCNC(=O)OCc3ccccc3)cc2)nc1C(=O)Nc1cnccc1N1CCOCC1 [Compound 1.1, Benzyl (4-(5-amino-6-((4-morpholinopyridin-3-yl)carbamoyl)pyrazin-2-yl)phenethyl)carbamate]
28 | 100 to 1000 | < 50 | Nc1ncc(-c2ccc(CCCNC(=O)OCc3ccccc3)cc2)nc1C(=O)Nc1cnccc1N1CCOCC1 [Compound 1.2]
29 | 50 to 100 | < 50 | NCCCc1ccc(-c2cnc(N)c(C(=O)Nc3cnccc3N3CCOCC3)n2)cc1 [Compound 2.1, 3-Amino-6-(4-(3-aminopropyl)phenyl)-N-(4-morpholinopyridin-3-yl)pyrazine-2-carboxamide]
30 | 50 to 100 | < 50 | NCCc1ccc(-c2cnc(N)c(C(=O)Nc3cnccc3N3CCOCC3)n2)cc1 [Compound 6]
31 | 50 to 100 | < 50 | NCc1ccc(-c2cnc(N)c(C(=O)Nc3cnccc3N3CCOCC3)n2)cc1 [Compound 7]
32 | 100 to 1000 | – | CC(C)(C)OC(=O)N[C@@H](CCCCN)C(=O)NCCc1ccc(-c2cnc(N)c(C(=O)Nc3cnccc3N3CCOCC3)n2)cc1 [Compound 12]
33 | – | < 50 | Nc1ncc(-c2ccc(OCCNC(=O)OCc3ccccc3)cc2)nc1C(=O)Nc1cnccc1N1CCOCC1 [Compound 45]
34 | 100 to 1000 | – | CC(=O)c1ccc(C(=O)NCCc2ccc(-c3cnc(N)c(C(=O)Nc4cnccc4N4CCOCC4)n3)cc2)cc1 [Compound 58]
35 | > 1000 | – | Nc1ncc(-c2ccc([C@@H]3CNC[C@H]3C(=O)O)cc2)nc1C(=O)Nc1cnccc1N1CCOCC1 [Compound 231]
36 | 100 to 1000 | – | Nc1ncc(-c2ccc(N[C@@H]3CCNC3)cc2)nc1C(=O)Nc1cnccc1N1CCOCC1 [Compound 281]
37 | 100 to 1000 | – | CC(C)(C)OC(=O)N1CC[C@@H](Nc2ccc(-c3cnc(N)c(C(=O)Nc4cnccc4N4CCOCC4)n3)cc2)C1 [Compound 282]
38 | 100 to 1000 | – | Nc1ncc(-c2ccc(N3CCC[C@@H](N)C3)cc2)nc1C(=O)Nc1cnccc1N1CCOCC1 [Compound 283]
39 | 100 to 1000 | – | CC(C)(C)OC(=O)N[C@@H]1CCCN(c2ccc(-c3cnc(N)c(C(=O)Nc4cnccc4N4CCOCC4)n3)cc2)C1 [Compound 284]
40 | 50 to 100 | – | Nc1ncc(-c2ccc(N3CCC[C@H](N)C3)cc2)nc1C(=O)Nc1cnccc1N1CCOCC1 [Compound 285]
41 | 100 to 1000 | – | CC(C)(C)OC(=O)N[C@H]1CCCN(c2ccc(-c3cnc(N)c(C(=O)Nc4cnccc4N4CCOCC4)n3)cc2)C1 [Compound 286]
42 | 100 to 1000 | – | CC(S)CCC(=O)NCC(C)Oc1ccc(-c2cnc(N)c(C(=O)Nc3cnccc3N3CCOCC3)n2)cc1 (stereo not shown) [Compound 287]
43 | 100 to 1000 | – | CC(CNC(=O)CCC(C)(C)S)Oc1ccc(-c2cnc(N)c(C(=O)Nc3cnccc3N3CCOCC3)n2)cc1 (stereo not shown) [Compound 288]
44 | 50 to 100 | – | Nc1ncc(-c2ccc(N3CCN(CCO)CC3)cc2)nc1C(=O)Nc1cnccc1N1CCOCC1 [Compound 289]
45 | < 50 | – | CN(C)C1CCN(c2ccc(-c3cnc(N)c(C(=O)Nc4cnccc4N4CCOCC4)n3)cc2)CC1 [Compound 290]
46 | 100 to 1000 | – | CN(c1ccc(-c2cnc(N)c(C(=O)Nc3cnccc3N3CCOCC3)n2)cc1)C1CCN(C(=O)OC(C)(C)C)CC1 [Compound 291]
47 | 100 to 1000 | – | NCCN(CCO)c1ccc(-c2cnc(N)c(C(=O)Nc3cnccc3N3CCOCC3)n2)cc1 [Compound 292]
48 | 100 to 1000 | – | Nc1ncc(-c2ccc(N(CCO)CCNC(=O)OCc3ccccc3)cc2)nc1C(=O)Nc1cnccc1N1CCOCC1 [Compound 293]
49 | 100 to 1000 | – | COC(=O)[C@@H](C)N(C)c1ccc(-c2cnc(N)c(C(=O)Nc3cnccc3N3CCOCC3)n2)cc1 [Compound 294]
50 | 100 to 1000 | – | C[C@H](C(=O)O)N(C)c1ccc(-c2cnc(N)c(C(=O)Nc3cnccc3N3CCOCC3)n2)cc1 [Compound 295]
51 | < 50 | – | C[C@H](CO)N(C)c1ccc(-c2cnc(N)c(C(=O)Nc3cnccc3N3CCOCC3)n2)cc1 [Compound 296]
52 | 100 to 1000 | – | COC(=O)[C@H](C)N(C)c1ccc(-c2cnc(N)c(C(=O)Nc3cnccc3N3CCOCC3)n2)cc1 [Compound 297]
53 | 100 to 1000 | – | C[C@@H](C(=O)O)N(C)c1ccc(-c2cnc(N)c(C(=O)Nc3cnccc3N3CCOCC3)n2)cc1 [Compound 298]
54 | 100 to 1000 | – | CN(c1ccc(-c2cnc(N)c(C(=O)Nc3cnccc3N3CCOCC3)n2)cc1)[C@@H]1CCN(C(=O)OC(C)(C)C)C1 [Compound 300]
